From US20180228828A1, “FIXED-DOSE COMBINATIONS OF ANTIVIRAL COMPOUNDS” (priority 2015, published 2018)

Tests used:
[1] = human bioavailability comparison study, Tablet Formulation 10 vs co-administered single entity products; assay type: in vivo; details: for AUC(0-inf) / Cmax / AUC(0-t) / concentration at 24 h: human, plasma, oral, human plasma, fasted; for concentration at 24 h: read-out: C24 GM
Procedure: (§1) The blend is lubricated with magnesium stearate prior to roller compaction. Following roller compaction, the granules are further lubricated with magnesium stearate before compression on a rotary press. Tablet properties of apparent density and solid fraction are determined by gravimetric measurement of the drug product and geometric estimation of size with corresponding component powder measure of true density using helium pycnometry. The core tablets are then film coated and waxed to complete manufacture.
(§2) The reference in the study was co-administration of single entity products to achieve the equivalent total dose. In this cross-over design study all subjects were in the fasted state. Tablet Formulations 9b, and 10b were administered as Treatment C in the respective studies. Tablet Formulations 9a, and 10a were administered as Treatment B in the respective studies. The co-administration of the reference products were identified as Treatment A. After administration, blood samples were taken periodically, and the plasma concentration of the analytes, both primary compounds and metabolites, determined to generate the pharmacokinetic profiles and related specific metrics. These metrics included Cmax, AUC, and C24 (where quantifiable). Summary results from the human PK trials for Tablet Formulation 9 and Tablet Formulation 10 products are provided in Table 10 to Table 13 and Table 14 to 17, respectively. The resulting metrics were then compared in relation to the reference single entity products to assess similarity.

[2] = human bioavailability comparison study, Tablet Formulation 9 vs co-administered single entity products; assay type: in vivo; details: for AUC(0-inf) / Cmax / AUC(0-t) / concentration at 24 h: human, plasma, oral, human plasma, fasted; for concentration at 24 h: read-out: C24 GM
Procedure: as §1, §2

log D = assay type: physicochemical; details: pH=7
[3] = Treatment B (Tablet Formulation 10a) / Treatment A (single entities)
[4] = Treatment C (Tablet Formulation 10b) / Treatment A (single entities)
[5] = Treatment A: co-administered single entity products, equivalent total dose
[6] = Treatment A: co-administered single entity products, equivalent total dose, read-out: AUC0-24 GM
[7] = Treatment A: co-administered single entity products, equivalent total dose, read-out: AUC0-last GM
[8] = Treatment B: one unit Tablet Formulation 10a
[9] = Treatment C: one unit Tablet Formulation 10b
[10] = Treatment B (Tablet Formulation 9a) / Treatment A (single entities)
[11] = Treatment C (Tablet Formulation 9b) / Treatment A (single entities)
[12] = Treatment B: two units Tablet Formulation 9a
[13] = Treatment C: two units Tablet Formulation 9b

Compound: C=C[C@@H]1C[C@]1(NC(=O)[C@@H]1C[C@@H]2CN1C(=O)[C@H](C(C)(C)C)NC(=O)O[C@@H]1C[C@H]1CCCCCc1nc3ccc(OC)cc3nc1O2)C(=O)NS(=O)(=O)C1CC1 [Compound III, (1aR,5S,8S,10R,22aR)-N-[(1R,2S)-1-[(cyclopropylsulfonamido)carbonyl]-2-ethenylcyclopropyl]-14-methoxy-5-(2-methylpropan-2-yl)-3,6-dioxo-1,1a,3,4,5,6,9,10,18,19,20,21,22,22a-tetradecahydro-8H-7,10-methanocyclopropa[18,19][1,10,3,6]dioxadiazacyclononadecino[11,12-b]quinoxaline-8-carboxamide hydrate]
- AUC0-24 B/A GM ratio [1, 3]: 0.71
- AUC0-last B/A GM ratio [1, 3]: 0.72
- AUC0-∞ B/A GM ratio [1, 3]: 0.69
- C24 B/A GM ratio [1, 3]: 0.80
- Cmax B/A GM ratio [1, 3]: 0.70
- AUC0-24 C/A GM ratio [1, 4]: 0.86
- AUC0-last C/A GM ratio [1, 4]: 0.91
- AUC0-∞ C/A GM ratio [1, 4]: 0.95
- C24 C/A GM ratio [1, 4]: 0.85
- Cmax C/A GM ratio [1, 4]: 0.91
- AUC(0-inf) [1, 5]: 0.5 µM·h
- Cmax [1, 5]: 27.5 nM
- AUC(0-t) [1, 6]: 0.24 µM·h
- AUC(0-t) [1, 7]: 0.36 µM·h
- concentration at 24 h [1, 5]: 4.85 nM
- AUC(0-t) ([1]; Treatment B: one unit Tablet Formulation 10a (300 mg Compound I, 100 mg Compound II, 50 mg Compound III), read-out: AUC0-last GM): 0.26 µM·h
- AUC(0-inf) [1, 8]: 0.34 µM·h
- Cmax [1, 8]: 19.3 nM
- AUC(0-t) ([1]; Treatment B: one unit Tablet Formulation 10a, read-out: AUC0-24 GM): 0.17 µM·h
- concentration at 24 h [1, 8]: 3.89 nM
- AUC(0-t) ([1]; Treatment C: one unit Tablet Formulation 10b (300 mg Compound I, 100 mg Compound II, 50 mg Compound III), read-out: AUC0-last GM): 0.33 µM·h
- AUC(0-inf) [1, 9]: 0.47 µM·h
- Cmax [1, 9]: 24.9 nM
- AUC(0-t) ([1]; Treatment C: one unit Tablet Formulation 10b, read-out: AUC0-24 GM): 0.2 µM·h
- concentration at 24 h [1, 9]: 4.11 nM
- AUC0-24 B/A GM ratio [2, 10]: 0.72
- AUC0-last B/A GM ratio [2, 10]: 0.77
- AUC0-∞ B/A GM ratio [2, 10]: 0.76
- C24 B/A GM ratio [2, 10]: 0.85
- Cmax B/A GM ratio [2, 10]: 0.64
- AUC0-24 C/A GM ratio [2, 11]: 1.00
- AUC0-last C/A GM ratio [2, 11]: 0.97
- AUC0-∞ C/A GM ratio [2, 11]: 0.88
- C24 C/A GM ratio [2, 11]: 1.04
- Cmax C/A GM ratio [2, 11]: 0.89
- AUC(0-inf) [2, 5]: 0.7 µM·h
- Cmax [2, 5]: 38.5 nM
- AUC(0-t) [2, 6]: 0.316 µM·h
- AUC(0-t) [2, 7]: 0.538 µM·h
- concentration at 24 h [2, 5]: 6.38 nM
- AUC(0-t) ([2]; Treatment B: two units Tablet Formulation 9a (450 mg Compound I, 100 mg Compound II, 50 mg Compound III), read-out: AUC0-last GM): 0.415 µM·h
- AUC(0-inf) [2, 12]: 0.53 µM·h
- Cmax [2, 12]: 24.8 nM
- AUC(0-t) ([2]; Treatment B: two units Tablet Formulation 9a, read-out: AUC0-24 GM): 0.229 µM·h
- concentration at 24 h [2, 12]: 5.41 nM
- AUC(0-t) ([2]; Treatment C: two units Tablet Formulation 9b (450 mg Compound I, 100 mg Compound II, 50 mg Compound III), read-out: AUC0-last GM): 0.522 µM·h
- AUC(0-inf) [2, 13]: 0.617 µM·h
- Cmax [2, 13]: 34.1 nM
- AUC(0-t) ([2]; Treatment C: two units Tablet Formulation 9b, read-out: AUC0-24 GM): 0.317 µM·h
- concentration at 24 h [2, 13]: 6.63 nM
- logD (log D): -3
